From US7326689B2, “Pseudomycins useful against plant diseases” (Eli Lilly and Company, priority 2000, dated 2008)

Key:
Experiment in all cases: Antifungal growth assay in potato dextrose broth, 24-well
Assay type in all cases: cell-based
Design in all cases: key: NI, no inhibition; p (partial), at least 50% inhibited
Bipolaris sorokiniana = system: Bipolaris sorokiniana
Outline: (§1)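 Growth inhibition in broth culture was assessed visually against a vehicle control. Final pseudomycin concentrations ran from 50 to 1.56 ug/ml. The lowest level without growth was recorded at days 2 and 5.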

Botrytis alli = settings: 2x assays
Outline: as §1

Cochliobolus carbonum = system: Cochliobolus carbonum
Outline: as §1

[1] = system: Drechslera tritici-repentis
Outline: as §1

Fusarium avenaceum = system: Fusarium avenaceum
Outline: as §1

Fusarium culmorum = system: Fusarium culmorum
Outline: as §1

[2] = system: Pestalotiopsis microspora NE-32
Outline: as §1

Phyllosticta maydis = system: Phyllosticta maydis
Outline: as §1

Phytophthora cactorum = system: Phytophthora cactorum
Outline: as §1

Phytophthora parasitica = system: Phytophthora parasitica
Outline: as §1

Sclerotinia sclerotiorum = settings: 2x assays
Outline: as §1

Tapesia yallundae = settings: 2x assays
Outline: as §1

Verticillium dahliae = settings: 2x assays
Outline: as §1

Substance	lowest level of compound that results in no growth (Bipolaris sorokiniana; five day results)	lowest level of compound that results in no growth (Bipolaris sorokiniana; two day results)	lowest level of compound that results in no growth (Botrytis alli; five day results)	lowest level of compound that results in no growth (Botrytis alli; two day results)	lowest level of compound that results in no growth (Cochliobolus carbonum; five day results)	lowest level of compound that results in no growth (Cochliobolus carbonum; two day results)	lowest level of compound that results in no growth ([1]; five day results)	lowest level of compound that results in no growth ([1]; two day results, 2x assays) [µg/mL]	lowest level of compound that results in no growth (Fusarium avenaceum; five day results)	lowest level of compound that results in no growth (Fusarium avenaceum; two day results)	lowest level of compound that results in no growth (Fusarium culmorum; five day results)	lowest level of compound that results in no growth (Fusarium culmorum; two day results)	lowest level of compound that results in no growth ([2]; five day results)	lowest level of compound that results in no growth ([2]; two day results)	lowest level of compound that results in no growth (Phyllosticta maydis; five day results)	lowest level of compound that results in no growth (Phyllosticta maydis; two day results)	lowest level of compound that results in no growth (Phytophthora cactorum; five day results)	lowest level of compound that results in no growth (Phytophthora cactorum; two day results)	lowest level of compound that results in no growth (Phytophthora parasitica; five day results)	lowest level of compound that results in no growth (Phytophthora parasitica; two day results)	other results
Pseudomycin B	NI	NI	NI	NI	NI	NI	p at 50	50	NI	NI	NI	NI	p at 50	p at 50	50 µg/mL	50 µg/mL	NI	NI	NI	NI	lowest level of compound that results in no growth (Sclerotinia sclerotiorum; five day results): NI; lowest level of compound that results in no growth (Sclerotinia sclerotiorum; two day results): p at 50; lowest level of compound that results in no growth (Tapesia yallundae; five day results): NI; lowest level of compound that results in no growth (Tapesia yallundae; two day results): 25 µg/mL; lowest level of compound that results in no growth (Verticillium dahliae; five day results): p at 50; lowest level of compound that results in no growth (Verticillium dahliae; two day results): 25 µg/mL
Pseudomycin B′	NI	NI	NI	NI	NI	NI	p at 50	50	NI	NI	NI	NI	NI	NI	NI	p at 50	NI	NI	NI	NI	lowest level of compound that results in no growth (Sclerotinia sclerotiorum; five day results): NI; lowest level of compound that results in no growth (Sclerotinia sclerotiorum; two day results): NI; lowest level of compound that results in no growth (Tapesia yallundae; five day results): 50 µg/mL; lowest level of compound that results in no growth (Tapesia yallundae; two day results): 6.25 µg/mL; lowest level of compound that results in no growth (Verticillium dahliae; five day results): NI; lowest level of compound that results in no growth (Verticillium dahliae; two day results): NI
Pseudomycin C	NI	NI	NI	NI	NI	NI	NI	50	NI	NI	NI	NI	NI	NI	NI	p at 50	NI	NI	NI	NI	lowest level of compound that results in no growth (Sclerotinia sclerotiorum; five day results): NI; lowest level of compound that results in no growth (Sclerotinia sclerotiorum; two day results): NI; lowest level of compound that results in no growth (Tapesia yallundae; five day results): NI; lowest level of compound that results in no growth (Tapesia yallundae; two day results): 25 µg/mL; lowest level of compound that results in no growth (Verticillium dahliae; five day results): p at 50; lowest level of compound that results in no growth (Verticillium dahliae; two day results): 25 µg/mL
Pseudomycin C′	NI	NI	NI	NI	NI	NI	NI	50	NI	NI	NI	NI	NI	NI	NI	p at 50	NI	NI	NI	NI	lowest level of compound that results in no growth (Sclerotinia sclerotiorum; five day results): p at 50; lowest level of compound that results in no growth (Sclerotinia sclerotiorum; two day results): 50 µg/mL; lowest level of compound that results in no growth (Tapesia yallundae; five day results): NI; lowest level of compound that results in no growth (Tapesia yallundae; two day results): 6.25 µg/mL; lowest level of compound that results in no growth (Verticillium dahliae; five day results): p at 50; lowest level of compound that results in no growth (Verticillium dahliae; two day results): p at 50
pseudomycin A-FB	NI	NI	NI	NI	NI	NI	NI	25	NI	NI	NI	NI	NI	p at 50	NI	p at 50	NI	NI	NI	NI	lowest level of compound that results in no growth (Sclerotinia sclerotiorum; five day results): NI; lowest level of compound that results in no growth (Sclerotinia sclerotiorum; two day results): NI; lowest level of compound that results in no growth (Tapesia yallundae; five day results): 25 µg/mL; lowest level of compound that results in no growth (Tapesia yallundae; two day results): 12.5 µg/mL; lowest level of compound that results in no growth (Verticillium dahliae; five day results): p at 50; lowest level of compound that results in no growth (Verticillium dahliae; two day results): 50 µg/mL
